According to patent US20230181564A1, “Potent Tetrahydroquinolone Eliminates Apicomplexan Parasites” (The University of Chicago, priority 2020, published 2023):
Converted amounts (≈) assume the structure as drawn.

Experiments:
[1] = Kinetic/aqueous solubility in PBS pH 7.4; type: physicochemical; conditions: for PBS Sol pH7.4: solubility in Phosphate Buffered Saline pH 7.4, first value of cell
Experimental: PBS Sol/Toxicity pH7.4 refers to solubility of the compound in Phosphate Buffered Saline (PBS) at pH7.4. […] Parasites were RH-YFP expressing tachyzoites (Tachy) and EGS (Brady) strains. Studies of effects of inhibitors on HFF or on T.gondii tachyzoites were performed with triplicate wells in at least two biological replicate experiments. Studies of effects on bradyzoites were performed at least twice in at least two biological replicate experiments. Compounds with much less inhibition of mammalian than T. gondii cytochrome bc in the saffarine enzyme assay (indicated by **) provide potential to further develop compounds, if unanticipated toxicity occurs from JAG21.
Structure Activity Relationship (SAR) and comparison of effect on T.gondii and HFF enzyme activity. […] The MDCK-MDR1 Permeability Assay was also performed. […] These were measured by Chem Partners.

[2] = Metabolic stability in mouse liver microsomes; type: in vitro ADME; conditions: predicted half-life in mouse liver microsomes; no unit in table (101 minutes for JAG021)
[3] = tested on: Human Foreskin Fibroblast (HFF); assay: Cytotoxicity assay with WST-1 on HFF; type: cell-based; conditions: WST assay, HFF; second value of cell
Experimental: PBS Sol/Toxicity pH7.4 refers to solubility of the compound in Phosphate Buffered Saline (PBS) at pH7.4. […] Tachy/Brady IC50 was determined in studies in which cultures of parasites in HFF were treated with varying concentrations of the compound and there was 50% inhibition of the replication (number) of parasites. Parasites were RH-YFP expressing tachyzoites (Tachy) and EGS (Brady) strains. Studies of effects of inhibitors on HFF or on T.gondii tachyzoites were performed with triplicate wells in at least two biological replicate experiments. Studies of effects on bradyzoites were performed at least twice in at least two biological replicate experiments. Compounds with much less inhibition of mammalian than T. gondii cytochrome bc in the saffarine enzyme assay (indicated by **) provide potential to further develop compounds, if unanticipated toxicity occurs from JAG21.
Cytotoxicity Assays in parallel with RH Strain T.gondii in vitro studies. Toxicity assays used WST-1 cell proliferation reagent (Roche) as in Fomovska et al. (2012). HFF were grown on a flat, clear-bottomed, black 96-well plate. Confluent HFF were treated with inhibitory compounds at concentrations of 10 μM and 50 μM. Compounds were diluted in IMDM-C, and 20 μL were added to each designated well, with triplicates for each condition. A gradient with 2 fold-decreasing concentrations of DMSO from 10% to 0% in colorless, translucent IMDM-C was used as a control. The plate was incubated for 72 hours at 37° C. 10 μL WST-1 reagent (Roche) were added to each well. Cells were incubated for 30-60 minutes. Absorbance was read using a fluorimeter at 420 nm. A higher degree of color change (and absorbance) indicated mitochondrial activity and cell viability.
Because T. gondii grows inside cells, if a compound were toxic to host HFF then it would make the compound appear to be spuriously effective (Fomovska et al. 2012; Fomovska et al. 2012a), when in actuality only toxicity for the host cell would be measured. Cytotoxicity to HFF was therefore assessed for all compounds at 10 μM. Results of this experiment are in Table 1, toxicity column. A two-way ANOVA and subsequent pairwise comparison found none of the differences in absorbance, compared to the media-DMSO vehicle controls, to be statistically significant (p>0.05). Most of these compounds are not toxic at 10 μM (the limit of solubility) and that cytotoxicity to cells can be attributed to DMSO in the solution, not the compound.

Row | Structure (SMILES) | PBS Sol pH7.4 [1] [μM] | Toxicity* (highest concentration tested that does not show toxicity to HFF) [3] | further results
1 | Cc1[nH]c2c(c(=O)c1-c1ccc(Oc3cccc(OC(F)(F)F)c3)cc1)CCCC2 [AS006] | 0.55 |  | T1/2 (M) [2]: 25.88
2 | Cc1[nH]c2c(c(=O)c1-c1ccc(Oc3cccc(C(F)(F)F)c3)cc1)CCCC2 [AS012] | 2.19 |  | T1/2 (M) [2]: 30.05
3 | Cc1[nH]c2c(c(=O)c1-c1ccc(Oc3ccc(F)c(Cl)c3)cc1)CCCC2 [AS021] | 2 |  | T1/2 (M) [2]: 41.09
4 | Cc1[nH]c2c(c(=O)c1-c1ccc(Oc3cc(Cl)cc(Cl)c3)cc1)CCCC2 [AS022] | 6.25 |  | T1/2 (M) [2]: 28.62
5 | Cc1[nH]c2c(c(=O)c1-c1ccc(Oc3ccc4c(c3)OCO4)cc1)CCCC2 [AS032] |  | ND/5 μM | 
6 | COc1ccc(Oc2ccc(-c3c(C)[nH]c4c(c3=O)CCCC4)cc2)cc1OC [AS033] |  | ND/5 μM | 
7 | Cc1[nH]c2c(c(=O)c1-c1ccc(Oc3cc(Cl)nc(Cl)c3)cc1)CCCC2 [AS034] | 5.05 |  | T1/2 (M) [2]: 24.93
8 | Cc1[nH]c2ccccc2c(=O)c1-c1ccc(Oc2ccc(OC(F)(F)F)cc2)cc1 [ELQ271, reference compound] | 0.15 |  | solubility ([1]; amorphous compounds): 0.2 µM (≈ 0.0823 µg/mL)
9 | Cc1cc2[nH]c(C)c(-c3ccc(Oc4ccc(OC(F)(F)F)cc4)cc3)c(=O)n2n1 [JAG006] |  | ND/5 μM | 
10 | CSc1nc2[nH]c(C)c(-c3ccc(Oc4ccc(OC(F)(F)F)cc4)cc3)c(=O)n2n1 [JAG013] |  | ND/5 μM | 
11 | Cc1[nH]c2c(C#N)cnn2c(=O)c1-c1ccc(Oc2ccc(OC(F)(F)F)cc2)cc1 [JAG014] |  | ND/5 μM | 
12 | Cc1[nH]c2cc(-c3ccccc3)nn2c(=O)c1-c1ccc(Oc2ccc(OC(F)(F)F)cc2)cc1 [JAG015] |  | ND/5 μM | 
13 | Cc1[nH]c2c(c(=O)c1-c1ccc(Oc3ccc(C(=O)O)cc3)nc1)CCCC2 [JAG022] |  | ND/5 μM | 
14 | Cc1c(-c2ccc(Oc3ccc(OC(F)(F)F)cc3)cc2)c(=O)c2c(n1C)CCCC2 [JAG023] |  | ND/5 μM | 
15 | Cc1[nH]c2c(c(=O)c1-c1ccc(Oc3ccc(F)cc3)cc1)CCCC2 [JAG058] | 2.38 |  | T1/2 (M) [2]: 39.17
16 | Cc1[nH]c2c(c(=O)c1-c1ccc(Oc3cccc(Cl)c3)cc1)CCCC2 [JAG062] | 0.33 |  | T1/2 (M) [2]: 12.42
17 | Cc1[nH]c2c(c(=O)c1-c1ccc(Oc3ccc(C(F)(F)F)cc3)cc1)CCCC2 [JAG063] | 0.45 |  | T1/2 (M) [2]: 126.96
18 | Cc1[nH]c2c(c(=O)c1-c1ccc(Oc3cccc(F)c3)cc1)CCCC2 [JAG069] | 0.5 |  | T1/2 (M) [2]: 17.38
19 | Cc1c(-c2ccc(Oc3ccc(Cl)cc3)cc2)c(=O)c2c(n1C)CCCC2 [JAG077] |  | ND/5 μM | 
20 | Cc1[nH]c2c(c(=O)c1-c1ccc(Oc3ccc(Cl)c(Cl)c3)cc1)CCCC2 [JAG084] | 0.68 |  | T1/2 (M) [2]: 63.1
21 | O=C(O)c1[nH]c2c(c(=O)c1-c1ccc(Oc3ccc(OC(F)(F)F)cc3)cc1)CCCC2 [JAG091] |  | ND/5 μM | 
22 | Cc1[nH]c2c(c(=O)c1-c1ccc(Oc3ccc(OC(F)(F)F)cc3)nc1)CCCC2 [JAG092] |  | ND/5 μM | 

Row | Structure (SMILES) | PBS Sol pH7.4 [1] [μM] | Toxicity* (highest concentration tested that does not show toxicity to HFF) [3] | further results
23 | Cc1[nH]c2c(c(=O)c1-c1ccc(O)cc1)CCCC2 [JAG094] |  | ND/5 μM | 
24 | O=c1[nH]c2c(c(=O)n1-c1ccc(Oc3ccccc3)cc1)CCCC2 [JAG095] |  | ND/5 μM | 
25 | Cc1[nH]c2c(c(=O)c1-c1ccc(Oc3ccc(OC(F)(F)F)cc3)cc1)CC(C(F)(F)F)CC2 (centres unmarked) [JAG100] |  | ND/5 μM | 
26 | Cc1[nH]c2c(c(=O)c1-c1ccc(Oc3ccc(OC(F)(F)F)cc3)cc1)CC(C)CC2 (centres unmarked) [JAG106] |  | ND/5 μM | 
27 | Cc1[nH]c2c(c(=O)c1-c1ccc(Oc3ccc(OC(F)(F)F)cc3)cc1)CCC(C)C2 (centres unmarked) [JAG107] | 0.03 |  | T1/2 (M) [2]: 111.93
28 | CCC1CCc2c([nH]c(C)c(-c3ccc(Oc4ccc(OC(F)(F)F)cc4)cc3)c2=O)C1 (centres unmarked) [JAG121] | 0.16 |  | T1/2 (M) [2]: 63.28
29 | Cc1[nH]c2cnccc2c(=O)c1-c1ccc(Oc2ccc(OC(F)(F)F)cc2)cc1 [JAG129] | 5.12 |  | 
30 | CCOC(=O)Oc1c2c(nc(C)c1-c1ccc(Oc3ccc(OC(F)(F)F)cc3)cc1)CCCC2 [JAG171] |  | ND/5 μM | 
31 | CCC1CCc2c([nH]c(CO)c(-c3ccc(Oc4ccc(OC(F)(F)F)cc4)cc3)c2=O)C1 (centres unmarked) [JAG174] |  | ND/5 μM | 
32 | O=c1c2c([nH]c(CO)c1-c1ccc(Oc3ccc(OC(F)(F)F)cc3)cc1)CC(C(F)(F)F)CC2 (centres unmarked) [JAG187] |  | ND/5 μM | 
33 | CC1CCc2c([nH]c(CO)c(-c3ccc(Oc4ccc(OC(F)(F)F)cc4)cc3)c2=O)C1 (centres unmarked) [JAG193] |  | ND/5 μM | 
34 | Cc1[nH]c2c(c(=O)c1-c1cccc(Oc3cc(Cl)cc(Cl)c3)c1)CCCC2 [JAG199] |  | ND/5 μM | 
35 | Cc1[nH]c2c(c(=O)c1-c1cccc(Oc3ccc(F)c(Cl)c3)c1)CCCC2 [JAG200] |  | ND/5 μM | 
36 | Cc1[nH]c2c(c(=O)c1-c1ccc(OCc3ccccc3)cc1)CCCC2 [JAG204] |  | ND/5 μM | 
37 | Cc1[nH]c2c(c(=O)c1-c1ccc(Oc3cc(Cl)cc(Cl)c3)cc1)CCC(C)C2 (centres unmarked) [JAG208] |  | ND/5 μM | 
38 | Cc1[nH]c2ccccc2c(=O)c1-c1ccc(Oc2ccccc2)cc1 [MJM129] |  | ND/5 μM | 
39 | Cc1[nH]c2ncnn2c(=O)c1-c1ccc(Oc2ccc(OC(F)(F)F)cc2)cc1 [MJM136] |  | ND/5 μM | 
40 | Cc1[nH]c2ccnn2c(=O)c1-c1ccc(Oc2ccc(OC(F)(F)F)cc2)cc1 [MJM141] | 0.94 |  | 
41 | Cc1[nH]c2c(c(=O)c1-c1cccc(Oc3ccc(OC(F)(F)F)cc3)c1)CCCC2 [NP032] |  | ND/5 μM | 
42 | Cc1[nH]c2c(c(=O)c1-c1cccc(Oc3ccc(Cl)cc3)c1)CCCC2 [NP034] |  | ND/5 μM | 
43 | Cc1[nH]c2c(c(=O)c1-c1cccc(Oc3ccc(C(F)(F)F)cc3)c1)CCCC2 [NP035] |  | ND/5 μM | 
